Experimental data taken from EP4140481A1, “PROTEIN-OLIGOMER BINDING AGENTS AND THERAPEUTIC USES THEREOF” (Galyan Bio, Inc., priority 2021, dated 2023).
“Also recorded” adds a separate entry of the source.

How the values were obtained:
mHTT = target: T1, mHTT (Homo sapiens, UniProt P42858); assay: mHTT levels in striatal cells (immunocytochemistry); type: cell-based, mouse; details: STHdh 111/111; MW1 primary antibody; non-linear regression; read-out: EC 50 value for mHTT reduction
T1 construct: host or cells: ST HDH Q111/111 mouse striatal cell line (knock-in locus)
T1 sequence (P42858 with tags, fused parts or gaps with the stated changes): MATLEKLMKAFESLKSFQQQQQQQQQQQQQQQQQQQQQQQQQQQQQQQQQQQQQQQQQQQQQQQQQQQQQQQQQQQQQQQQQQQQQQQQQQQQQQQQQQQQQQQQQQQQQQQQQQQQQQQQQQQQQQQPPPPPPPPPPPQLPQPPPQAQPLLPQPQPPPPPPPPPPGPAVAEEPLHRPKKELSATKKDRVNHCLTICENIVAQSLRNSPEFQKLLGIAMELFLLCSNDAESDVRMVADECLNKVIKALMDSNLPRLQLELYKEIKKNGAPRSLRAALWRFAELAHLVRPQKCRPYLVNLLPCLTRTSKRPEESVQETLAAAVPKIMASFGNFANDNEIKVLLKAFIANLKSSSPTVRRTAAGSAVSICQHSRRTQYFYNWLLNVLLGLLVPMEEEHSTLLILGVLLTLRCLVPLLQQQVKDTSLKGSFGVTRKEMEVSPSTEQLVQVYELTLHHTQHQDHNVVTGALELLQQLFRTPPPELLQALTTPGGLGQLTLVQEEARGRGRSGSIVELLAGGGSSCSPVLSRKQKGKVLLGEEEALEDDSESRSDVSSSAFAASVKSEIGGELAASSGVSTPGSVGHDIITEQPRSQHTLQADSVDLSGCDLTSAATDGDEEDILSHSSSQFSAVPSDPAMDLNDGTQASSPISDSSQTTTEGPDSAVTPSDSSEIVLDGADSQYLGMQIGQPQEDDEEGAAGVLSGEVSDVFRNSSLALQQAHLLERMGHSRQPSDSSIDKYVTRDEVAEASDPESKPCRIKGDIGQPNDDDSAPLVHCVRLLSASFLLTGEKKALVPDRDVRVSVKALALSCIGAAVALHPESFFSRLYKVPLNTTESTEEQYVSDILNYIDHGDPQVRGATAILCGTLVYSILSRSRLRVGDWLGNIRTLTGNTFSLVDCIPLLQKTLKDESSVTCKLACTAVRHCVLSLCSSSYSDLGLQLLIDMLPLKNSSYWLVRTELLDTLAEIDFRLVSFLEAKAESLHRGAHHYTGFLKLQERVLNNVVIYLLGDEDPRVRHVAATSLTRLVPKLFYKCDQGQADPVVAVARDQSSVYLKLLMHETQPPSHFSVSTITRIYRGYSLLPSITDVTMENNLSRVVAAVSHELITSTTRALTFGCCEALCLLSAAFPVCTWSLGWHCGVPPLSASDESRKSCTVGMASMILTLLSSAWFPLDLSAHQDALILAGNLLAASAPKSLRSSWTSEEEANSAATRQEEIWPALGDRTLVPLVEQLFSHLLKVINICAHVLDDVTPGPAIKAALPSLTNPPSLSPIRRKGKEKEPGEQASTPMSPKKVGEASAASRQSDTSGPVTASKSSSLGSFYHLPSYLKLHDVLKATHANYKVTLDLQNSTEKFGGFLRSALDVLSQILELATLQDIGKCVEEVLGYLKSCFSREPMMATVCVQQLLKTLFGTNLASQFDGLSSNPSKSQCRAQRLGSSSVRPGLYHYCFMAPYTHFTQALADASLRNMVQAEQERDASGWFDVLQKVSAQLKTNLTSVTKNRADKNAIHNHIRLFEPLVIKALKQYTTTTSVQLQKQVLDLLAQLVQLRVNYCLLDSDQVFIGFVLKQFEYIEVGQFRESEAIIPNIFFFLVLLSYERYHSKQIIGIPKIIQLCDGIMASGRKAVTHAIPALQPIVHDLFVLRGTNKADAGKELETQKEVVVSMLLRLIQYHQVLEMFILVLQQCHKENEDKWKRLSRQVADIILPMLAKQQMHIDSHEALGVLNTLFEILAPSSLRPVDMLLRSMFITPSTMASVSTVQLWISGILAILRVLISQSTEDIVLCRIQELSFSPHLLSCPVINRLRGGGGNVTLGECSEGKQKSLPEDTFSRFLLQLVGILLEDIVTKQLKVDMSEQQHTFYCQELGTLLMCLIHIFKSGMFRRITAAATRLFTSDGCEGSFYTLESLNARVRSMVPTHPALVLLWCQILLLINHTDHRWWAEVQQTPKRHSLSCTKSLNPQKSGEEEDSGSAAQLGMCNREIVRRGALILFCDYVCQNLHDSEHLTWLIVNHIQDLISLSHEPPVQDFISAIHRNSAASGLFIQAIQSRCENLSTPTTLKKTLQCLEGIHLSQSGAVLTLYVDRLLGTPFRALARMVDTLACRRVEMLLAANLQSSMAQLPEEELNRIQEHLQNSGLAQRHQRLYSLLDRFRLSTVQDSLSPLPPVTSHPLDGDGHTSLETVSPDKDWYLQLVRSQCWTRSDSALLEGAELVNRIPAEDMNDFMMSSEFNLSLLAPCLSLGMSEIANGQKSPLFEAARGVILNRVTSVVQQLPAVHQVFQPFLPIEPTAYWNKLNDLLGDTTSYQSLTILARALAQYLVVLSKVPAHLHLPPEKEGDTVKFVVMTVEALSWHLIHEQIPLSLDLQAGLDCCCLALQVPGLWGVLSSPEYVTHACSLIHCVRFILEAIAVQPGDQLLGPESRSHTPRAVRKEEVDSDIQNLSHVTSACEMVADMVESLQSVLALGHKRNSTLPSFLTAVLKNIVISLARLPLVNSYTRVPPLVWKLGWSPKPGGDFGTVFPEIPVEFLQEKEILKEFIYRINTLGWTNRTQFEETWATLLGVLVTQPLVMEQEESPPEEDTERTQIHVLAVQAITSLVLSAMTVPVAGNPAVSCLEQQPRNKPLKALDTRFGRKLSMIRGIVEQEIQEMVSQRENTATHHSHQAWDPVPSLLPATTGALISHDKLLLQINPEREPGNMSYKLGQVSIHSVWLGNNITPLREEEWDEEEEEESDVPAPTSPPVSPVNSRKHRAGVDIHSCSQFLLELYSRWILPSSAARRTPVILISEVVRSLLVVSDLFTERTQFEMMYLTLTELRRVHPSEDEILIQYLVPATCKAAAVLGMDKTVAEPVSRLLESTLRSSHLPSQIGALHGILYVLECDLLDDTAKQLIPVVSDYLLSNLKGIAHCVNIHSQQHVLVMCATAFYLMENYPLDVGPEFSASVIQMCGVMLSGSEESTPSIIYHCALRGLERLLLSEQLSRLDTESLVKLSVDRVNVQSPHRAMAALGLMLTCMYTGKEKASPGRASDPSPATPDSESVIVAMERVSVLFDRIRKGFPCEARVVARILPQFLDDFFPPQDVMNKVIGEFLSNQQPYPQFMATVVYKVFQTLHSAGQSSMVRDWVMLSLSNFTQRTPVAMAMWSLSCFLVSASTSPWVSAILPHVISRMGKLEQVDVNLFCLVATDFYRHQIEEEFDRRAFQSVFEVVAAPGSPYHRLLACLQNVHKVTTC

[1] = Solubilization of Compound 4; type: physicochemical
Amyloid-β 1-40 (Ab40) = target: T2, Amyloid-β 1-40 (Ab40) (Homo sapiens, UniProt P05067); assay: Dynamic Light Scattering (DLS), induced aggregation; type: biochemical; details: equimolar Compound 4
T2 construct: purchased rPeptide, Watkinsville, Georgia A-1153-2
T2 sequence (P05067 672-711): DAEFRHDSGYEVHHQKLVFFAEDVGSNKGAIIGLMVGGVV
Description: Proteins were ultracentrifuged with 50,000 rpm (rounds per minute) for one hour at 2 °C. The supernatant was used for DLS measurements. DLS measurements were conducted with Malvern Zetasizer Nano (Malvern Panalytical Ltd, United Kingdom).
Amyloid-β 1-40 (Ab40) (catalog A-1153-2, rPeptide, Watkinsville, Georgia) Sequence
The aliquots of lyophilized Amyloid-β 1-40 (Ab40) peptide were hydrated at room temperature in 50 mM phosphate buffer pH 7.4 and 100 mM NaCl (Buffer 1)
The aliquots of lyophilized Ab peptide were hydrated at room temperature in 75 mM MOPS pH 7.4 and 2 mM CaCl2 (Buffer 2)

[2] = Body weight in R6/2 mice of Huntington's disease; type: in vivo
Description: (§1) Methods ― Total of 20 female and male R6/2 mice and 10 female and male wild-type littermate control mice (WT) were used in the study. The mice were genotyped and the R6/2 mice were divided into different treatment groups based on their litter and baseline body weight. The treatment with Vehicle or Compound 22 (33 mg/kg; 5 ml/kg, i.p. QD) was started at 4 weeks of age after the baseline behavioral tests (Figure 6). Body weights were measured at 3 weeks of age and twice a week until the end of the study.
(§2) The experimental groups were: • Group 1) 10 wild-type mice (mixed gender) treated with Vehicle (5 ml/kg, i.p., QD) starting at 4 weeks of age • Group 2) 10 R6/2 mice (mixed gender) treated with Vehicle (5 ml/kg, i.p., QD) starting at 4 weeks of age • Group 3) 10 R6/2 mice (mixed gender) treated with Compound 22 (33 mg/kg; 5 ml/kg, i.p. QD) starting at 4 weeks of age
(§3) Compound Delivery and Dosing - Treatment with Compound 22 (33 mg/kg; 5 ml/kg, i.p. QD) or Vehicle was started at age week 4 and continued until the 12 weeks of age. The test articles were handled and stored and the dose formulations were prepared according to detailed instructions provided by the Sponsor.
Body Weight - Body weight was measured starting at 3 weeks of age before treatment onset and two times per week on the same day (on Monday and Friday) until the end of the study.

[3] = Pharmacokinetics of Compound 22 in plasma and brain (UHPLC-TOF); type: in vivo, male CD1 mice
Description: Compound 22 pharmacokinetic properties was measured in three male CD1 mice at several timepoints. Compound 22 was dissolved in 10% DMSO, 10%, cremaphor, and 80% saline. The tested dose was 33.3 mg/kg body weight. Brain tissue was homogenized and protein precipitated with acetonitrile. […] As such, Compound 22 was selected for testing in an animal model of HD the R6/2 model. As described below, Compound 22 and its analogs were further tested for their effects on striatal cell viability and effects of mHTT levels.

R6/2 mice = assay: Rotarod in R6/2 mice of Huntington's disease; type: in vivo; details: for rotarod performance: 33 mg/kg i.p. QD
Description: as §1, §2, §3
Rotarod - The Rotarod test was perfomed at 4 (pre-treatment baseline), 6, 8 and 10 weeks of age. Each testing day included a training trial of 5 min at 4 RPM on the Rotarod apparatus (AccuScan Instruments, Columbus, USA). 30 minutes later, the animals were tested for 3 consecutive accelerating trials of 6 min with the speed changing from 0 to 40 RPM over 360 seconds and with an inter-trial interval of at least 30 min. The latency to fall from the rod was recorded. Mice remaining on the rod for more than 360 s were removed and their time scored as 360 sec.
[…] littermate control mice (F1 generation) were bred by Charles River Laboratories, Sulzfeld, Germany by mating (F0 generation) WT males (C57BL/6J; systematically re-infused with pedigreed JAX mice, stock 000664) with ovarian transferred (OT) TG females (JAX, stock 006494). After weaning mice were sent from Germany to Charles River, Kuopio, Finland at an age of 3 weeks. Following genotyping and acclimation, the mice were enrolled in the study.

STHdh 111/111 cells = assay: Gene expression (Nanostring nCounter Mouse Neuropathology Panel); type: cell-based
Description: (§4) Gene expression of certain transcripts of interest were measured using Nanostring Technology. […] Some STHdh 7/7 and STHdh 111/111 cell samples were not heat shocked and some wells were treated with Compound 22 at the indicated concentration on for 48 hours (Table 17). Some STHdh 7/7 and STHdh 111/111 cell samples were heat shocked for 3 hours some wells were treated with Compound 22 at the indicated concentration on for 48 hours (Table 18). Cells are washed with PBS, trypsinised, and gathered in a 15 ml falcon tube. After a short spin down for 3 minutes at 300 g, the cell pellet was washed with PBS once, before it was frozen down in liquid nitrogen. RNA was extracted with a standard protocol. The nCounter® Mouse Neuropathology Panel (Nanostring, Seattle) was used for gene expression analysis according to the manufacturer's protocols. Table 17. Cell samples that were not subject to heat shock treatment

STHdh 7/7 cells = assay: as above; type: cell-based; details: 10 µM or 20 µM, 48 h, in comparison to untreated cells
Description: as §4

[4] = Buffer 1, Ab40 154 µM, 100% of Ab40
[5] = by intensity, Buffer2, Ab40 155 µM
[6] = treated STHdh 111/111 in comparison to untreated STHdh 111/111

Structure (SMILES): CCc1c(C)[nH]c2ccc(C(=O)NCCN(CC)CC)cc12 [Compound 4, N-(2-(diethylamino)ethyl)-3-ethyl-2-methyl-1H-indole-5-carboxamide]
- EC50 (mHTT): 130 nM
- solubility in DMSO ([1]; initial batch): limited solubility
- dissolved in water ([1]; second batch with an HCl modification): ≥ 200 mM
- mean size, distribution by number (Amyloid-β 1-40 (Ab40); [4]): 141.5 nm
- mean size, distribution by volume (Amyloid-β 1-40 (Ab40); [4]): 208.5 nm
- Size, Peak 1 (Amyloid-β 1-40 (Ab40); by intensity, Buffer2 (MOPS, CaCl2), Ab40 155 µM): 304.8 nm
- % Intensity, Peak 1 (Amyloid-β 1-40 (Ab40); [5]): 55.5%
- % Intensity, Peak 2 (Amyloid-β 1-40 (Ab40); [5]): 33.5%
- % Intensity, Peak 3 (Amyloid-β 1-40 (Ab40); [5]): 6.1%
- Size, Peak 2 (Amyloid-β 1-40 (Ab40); [5]): 77.06 nm
- Size, Peak 3 (Amyloid-β 1-40 (Ab40); [5]): 0.7710 nm

Structure (SMILES): Cc1[nH]c2ccc(C(=O)NCCN(C(C)C)C(C)C)cc2c1C [Compound 22]
- body weight ([2]; 33 mg/kg i.p. QD, R6/2 mice 3 to 12 weeks, versus vehicle treated R6/2 mice): no significant differences
- Body weight loss ([2]; female R6/2 mice at week 12, in comparison to untreated female R6/2 mice): significantly improved
- Body weight loss improvement ([2]; male R6/2 mice at week 12, in comparison to untreated male R6/2 mice): not observed
- penetration of the blood brain area in vivo ([3]; 33.3 mg/kg body weight, plasma and brain): penetrates the blood brain area; also recorded: can penetrate the blood brain area in vivo
- Blood Brain Barrier Penetrability AUCbrain/AUCplasma ([3]; Compound 22 in mice): AUCbrain/AUCplasma = 2.24
- Cmax ([3]; male, CD1, mouse, brain, ip, 33.3 mg/kg body weight, i.p. administration and formulation, read-out: Brain exposure Cmax): 5.56 µM
- rotarod performance (R6/2 mice; female R6/2 mice at 10 weeks of age, normalized to 4-week baseline, versus vehicle): significantly improved
- rotarod performance (R6/2 mice; pooled genders or males, versus vehicle treated R6/2 mice): no significant differences
- mean latency to fall (R6/2 mice; 33 mg/kg intraperitoneal once daily, female R6/2 mice at 10 weeks of age (vehicle 55.7 s)): 108.3 s
- improvement of latency to fall (R6/2 mice; in comparison to untreated model mice, 10 weeks of age): 94%
- Genes associated with the autophagy pathway (STHdh 111/111 cells; 10 µM or 20 µM, 48 h, in comparison to untreated cells): upregulated
- NGFR expression increase (STHdh 111/111 cells; paragraph on the KCNA1 gene (Figure 25 (E)), treated versus untreated STHdh 111/111): 68%
- Slc32a1 expression upregulation (STHdh 111/111 cells; treated STHdh 111/111 (Q111-10) in comparison to untreated STHdh 111/111): 12 fold
- Olig2 expression (STHdh 111/111 cells; [6]): doubled
- Rasgrp1 expression downregulation (STHdh 111/111 cells; [6]): 29%
- NGFR expression increase (STHdh 111/111 cells; treated STHdh 111/111 in comparison to untreated STHdh 111/111 (Figure 25 (D))): 60%
- Genes associated with the autophagy pathway (STHdh 7/7 cells): upregulated
